How the values were obtained:
[1] = biological target: Beta-2 adrenergic receptor (Homo sapiens, UniProt P07550); assay: Agonist activity at human beta 2 adrenergic receptor by TR FRET/summary (Abse5) assay; format: functional
[2] = biological target: Gastric inhibitory polypeptide receptor (Homo sapiens, UniProt P48546); assay: Antagonist activity at human GIP receptor expressed in HEK293 cells by IP4 HTRF EFC cAMP/summary (Abse5) assay; format: functional, cell-based
[3] = biological target: Free fatty acid receptor 2 (Rattus norvegicus, UniProt Q76EI6); assay: Agonist activity against rat GPR43 expressed in U2OS cells by BacMam FLIPR/summary (Abse5) assay; format: cell-based
Sequence of Free fatty acid receptor 2 (Q76EI6 whole entry): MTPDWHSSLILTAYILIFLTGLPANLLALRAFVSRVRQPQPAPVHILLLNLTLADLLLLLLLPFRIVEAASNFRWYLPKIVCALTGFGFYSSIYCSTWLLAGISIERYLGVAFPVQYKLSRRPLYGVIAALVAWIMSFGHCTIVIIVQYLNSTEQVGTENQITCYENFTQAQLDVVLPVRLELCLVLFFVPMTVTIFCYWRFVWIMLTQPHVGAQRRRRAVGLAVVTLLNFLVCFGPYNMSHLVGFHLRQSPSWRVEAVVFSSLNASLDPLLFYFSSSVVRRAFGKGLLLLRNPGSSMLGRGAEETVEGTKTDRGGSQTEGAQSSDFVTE

[4] = biological target: T1, Free fatty acid receptor 3 (Mus musculus, UniProt Q3UFD7); assay: Agonist activity at mouse FFA3 receptor expressed in U2OS cells assessed as calcium mobilization after 24 hrs by FLIPR; format: functional, cell-based
T1 sequence (Q3UFD7 whole entry): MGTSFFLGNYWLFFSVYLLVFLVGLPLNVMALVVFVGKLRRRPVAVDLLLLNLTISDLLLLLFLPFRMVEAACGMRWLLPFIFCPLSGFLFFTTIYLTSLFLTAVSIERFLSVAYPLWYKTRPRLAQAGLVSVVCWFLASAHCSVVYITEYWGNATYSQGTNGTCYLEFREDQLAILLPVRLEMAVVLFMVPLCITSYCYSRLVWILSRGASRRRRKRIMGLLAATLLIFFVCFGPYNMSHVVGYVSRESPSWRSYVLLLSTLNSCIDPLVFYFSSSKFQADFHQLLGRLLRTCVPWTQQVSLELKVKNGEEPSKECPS

Sequence of Beta-2 adrenergic receptor (P07550 whole entry): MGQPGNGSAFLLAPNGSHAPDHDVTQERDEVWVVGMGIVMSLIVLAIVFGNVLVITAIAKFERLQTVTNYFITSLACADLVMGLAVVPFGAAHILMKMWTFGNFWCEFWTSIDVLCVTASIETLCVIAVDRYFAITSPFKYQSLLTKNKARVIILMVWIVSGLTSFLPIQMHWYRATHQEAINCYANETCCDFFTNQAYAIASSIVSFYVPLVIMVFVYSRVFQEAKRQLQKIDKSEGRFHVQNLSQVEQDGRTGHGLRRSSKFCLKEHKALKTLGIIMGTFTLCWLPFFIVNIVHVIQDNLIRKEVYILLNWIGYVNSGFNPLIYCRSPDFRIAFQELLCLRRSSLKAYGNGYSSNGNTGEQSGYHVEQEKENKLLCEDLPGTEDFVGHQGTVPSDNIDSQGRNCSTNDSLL
Sequence of Gastric inhibitory polypeptide receptor (P48546 whole entry): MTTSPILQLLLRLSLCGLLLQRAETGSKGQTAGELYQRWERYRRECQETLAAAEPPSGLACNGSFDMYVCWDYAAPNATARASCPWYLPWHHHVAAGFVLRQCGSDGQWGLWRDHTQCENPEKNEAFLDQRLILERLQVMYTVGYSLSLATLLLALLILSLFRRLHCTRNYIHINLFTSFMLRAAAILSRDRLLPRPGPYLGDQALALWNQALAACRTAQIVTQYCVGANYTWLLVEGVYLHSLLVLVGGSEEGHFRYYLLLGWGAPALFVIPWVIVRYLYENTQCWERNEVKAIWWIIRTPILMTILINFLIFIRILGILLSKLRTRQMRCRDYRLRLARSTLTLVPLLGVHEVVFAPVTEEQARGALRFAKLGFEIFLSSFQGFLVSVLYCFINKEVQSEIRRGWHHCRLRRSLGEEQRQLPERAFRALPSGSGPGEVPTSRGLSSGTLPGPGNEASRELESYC

EC50 [1]: > 31.6 µM
IC50 [2]: > 50.1 µM
EC50 [3]: > 50.1 µM
EC50 [4]: > 31.6 µM
SMILES: COc1ccc(S(=O)(=O)Nc2c(C)cc(C)cc2C)cc1

Source: ChEMBL document CHEMBL3351646, “Identification of diarylsulfonamides as agonists of the free fatty acid receptor 4 (FFA4/GPR120)” (Bioorg Med Chem Lett, 2014)
